pEC50: −log10 of the molar value.

The source of these data is US10689367B2, “Triazole pyridyl compounds as agonists of the APJ receptor” (AMGEN INC., priority 2016, dated 2020).

The target of the experiment is human APJ receptor (Homo sapiens (Human), UniProt P35414). The experiment is described as follows: [35S]GTPγS binding assay on membranes from CHO cells stably expressing human APJ receptor. It counts as biochemical. Particulars: membranes of CHO cells stably expressing human APJ receptor, read-out: Activity hAPJ SPA EC50 IP. Summed up: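 Agonist EC50 values come from non-linear regression of mean data from several independent runs. Membranes of CHO cells stably expressing human APJ were incubated 90 min at room temperature with [35S]GTPγS in buffer with optimized GDP, MgCl2 and NaCl, then read on a microplate imager.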
Sequence of human APJ receptor (P35414 whole entry): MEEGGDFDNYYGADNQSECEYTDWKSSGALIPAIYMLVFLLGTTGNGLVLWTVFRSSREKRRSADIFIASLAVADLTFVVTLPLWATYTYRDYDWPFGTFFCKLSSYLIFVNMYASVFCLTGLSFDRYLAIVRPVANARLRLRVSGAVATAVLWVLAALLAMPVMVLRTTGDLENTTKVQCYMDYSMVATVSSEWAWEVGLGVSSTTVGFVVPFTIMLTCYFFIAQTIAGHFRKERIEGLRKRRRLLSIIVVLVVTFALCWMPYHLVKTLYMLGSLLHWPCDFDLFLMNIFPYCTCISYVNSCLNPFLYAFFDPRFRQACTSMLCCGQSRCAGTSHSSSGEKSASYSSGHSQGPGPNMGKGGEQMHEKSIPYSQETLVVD
With `COCCn1c(NS(=O)(=O)[C@H](C)[C@@H](C)c2ncc(Cl)cn2)nnc1-c1cccnc1` (stereo in doubt) [Example 18.0, (2R,3S)-3-(5-chloro-2-pyrimidinyl)-N-(4-(2-methoxyethyl)-5-(3-pyridinyl)-4H-1,2,4-triazol-3-yl)-2-butanesulfonamide], the pEC50 is 6.60.
Next, `COc1cccc(-c2nnc(NS(=O)(=O)[C@@H](C)[C@H](C)c3ncc(Cl)cn3)n2Cc2cc(C(F)(F)F)no2)n1` [Example 204.0, (2S,3R)-3-(5-chloro-2-pyrimidinyl)-N-(5-(6-methoxy-2-pyridinyl)-4-((3-(trifluoromethyl)-1,2-oxazol-5-yl)methyl)-4H-1,2,4-triazol-3-yl)-2-butanesulfonamide]: 7.68; `COc1cccc(-c2nnc(NS(=O)(=O)[C@@H](C)[C@H](OC)c3ncc(Cl)cn3)n2[C@H](C)c2cscn2)n1` (single isomer, unassigned) [Example 344.0, (1R,2S)-1-(5-chloropyrimidin-2-yl)-1-methoxy-N-(5-(6-methoxypyridin-2-yl)-4-((S)-1-(thiazol-4-yl)ethyl)-4H-1,2,4-triazol-3-yl)propane-2-sulfonamide or (1R,2S)-1-(5-chloropyrimidin-2-yl)-1-methoxy-N-(5-(6-methoxypyridin-2-yl)-4-((R)-1-(thiazol-4-yl)ethyl)-4H-1,2,4-triazol-3-yl)propane-2-sulfonamide]: 8.15.
For `COCC(COC)n1c(NS(=O)(=O)[C@@H](C)[C@H](C)c2ncc(OC)cn2)nnc1-c1cccc(OC)n1` [Example 99.0] the value was 8.38; for `CC[C@@H](c1c(C)noc1C)n1c(NS(=O)(=O)[C@@H](C)[C@H](OC)c2ncc(Cl)cn2)nnc1-c1cccc(OC)n1` (single isomer, unassigned) [Example 218.0, (1R,2S)-1-(5-chloro-2-pyrimidinyl)-N-(4-((1S)-1-(3,5-dimethyl-1,2-oxazol-4-yl)propyl)-5-(6-methoxy-2-pyridinyl)-4H-1,2,4-triazol-3-yl)-1-methoxy-2-propanesulfonamide or (1R,2S)-1-(5-chloro-2-pyrimidinyl)-N-(4-((1S)-1-(3,5-dimethyl-1,2-oxazol-4-yl)propyl)-5-(6-methoxy-2-pyridinyl)-4H-1,2,4-triazol-3-yl)-1-methoxy-2-propanesulfonamide], 8.43; for `COCCOc1cccc(-c2nnc(NS(=O)(=O)[C@@H](C)[C@H](OC)c3ncc(Cl)cn3)n2C(COC)COC)n1` [Example 42.0], 7.77.
On to `COc1cccc(-c2nnc(NS(=O)(=O)[C@@H](C)[C@H](OC)c3ncc(Cl)cn3)n2[C@H](C)c2cscn2)n1` (single isomer, unassigned) [Example 345.0, (1R,2S)-1-(5-chloropyrimidin-2-yl)-1-methoxy-N-(5-(6-methoxypyridin-2-yl)-4-((S)-1-(thiazol-4-yl)ethyl)-4H-1,2,4-triazol-3-yl)propane-2-sulfonamide or (1R,2 S)-1-(5-chloropyrimidin-2-yl)-1-methoxy-N-(5-(6-methoxypyridin-2-yl)-4-((R)-1-(thiazol-4-yl)ethyl)-4H-1,2,4-triazol-3-yl)propane-2-sulfonamide], for which the pEC50 is 8.96.
Next, `[2H]C1([2H])C(n2c(NS(=O)(=O)[C@@H](C)[C@@H](OC(C)C)c3ncc(C)cn3)nnc2-c2cccc(OC)n2)C1([2H])[2H]` [Example 164.0, (1S,2S)—N-(4-(Cyclopropyl-2,2,3,3-d4)-5-(6-methoxypyridin-2-yl)-4H-1,2,4-triazol-3-yl)-1-isopropoxy-1-(5-methylpyrimidin-2-yl)propane-2-sulfonamide]: 7.96; `COCC(COC)n1c(NS(=O)(=O)[C@@H](C)[C@@H](OC(C)C)c2ncc(Cl)cn2)nnc1-c1ccccn1` [Example 113.0]: 8.74.
